Measured values from PMC3344384 (Chemistry & biology, 2011).
Entries after “also recorded” stand apart in the source; their conditions may differ.

Tests used:
[1] = molecular target: USP7 (Homo sapiens, UniProt Q93009); experiment: K63-linked diubiquitin cleavage assay, USP7; settings: for IC50 for USP7, fold higher than that for USP1/UAF1: K63-linked diubiquitin substrate
[2] = molecular target: T1, USP1/UAF1 (Homo sapiens, UniProt O94782); experiment: gel-based K63-linked diubiquitin cleavage assay, USP1/UAF1; format: biochemical; settings: IC50 USP1/UAF1, K63-linked diubiquitin substrate; NI = no significant inhibition at highest inhibitor concentration of 114 μM
[3] = molecular target: T2, UCH-L1 (Homo sapiens, UniProt P09936); experiment: Ub-Rho assay, UCH-L1; format: biochemical
T2 sequence (P09936 1-223): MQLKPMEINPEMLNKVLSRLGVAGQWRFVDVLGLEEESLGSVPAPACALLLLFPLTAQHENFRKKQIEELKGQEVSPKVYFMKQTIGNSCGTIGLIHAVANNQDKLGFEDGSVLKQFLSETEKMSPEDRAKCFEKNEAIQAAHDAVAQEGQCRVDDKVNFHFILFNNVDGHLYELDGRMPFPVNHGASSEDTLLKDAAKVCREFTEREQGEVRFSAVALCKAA

[4] = molecular target: T1, USP1/UAF1; experiment: steady-state kinetics; format: biochemical
[5] = molecular target: USP1/UAF1 (Homo sapiens, UniProt O94782+Q8TAF3); experiment: steady-state kinetics; format: biochemical; settings: Lineweaver-Burk plots, K63-linked di-Ub substrate
[6] = in vitro; settings: human
[7] = system: Ub-FANCD2 in HEK293T cells; experiment: Western blot of Ub-FANCD2 level in cells; format: cell-based, human
[8] = system: Ub-H2A in HEK293T cells; experiment: histone H2A monoubiquitination in cells; format: cell-based, human; settings: in the presence or absence of cisplatin
[9] = system: Ub-PCNA in HEK293T cells; experiment: Western blot of Ub-PCNA level in cells; format: cell-based, human
[10] = molecular target: USP1/UAF1 complex (Homo sapiens, UniProt O94782+Q8TAF3); experiment: native gel electrophoresis of USP1/UAF1 complex; settings: incubation with inhibitor up to 10 × IC50
USP1/UAF1 complex, sequence (O94782 whole entry): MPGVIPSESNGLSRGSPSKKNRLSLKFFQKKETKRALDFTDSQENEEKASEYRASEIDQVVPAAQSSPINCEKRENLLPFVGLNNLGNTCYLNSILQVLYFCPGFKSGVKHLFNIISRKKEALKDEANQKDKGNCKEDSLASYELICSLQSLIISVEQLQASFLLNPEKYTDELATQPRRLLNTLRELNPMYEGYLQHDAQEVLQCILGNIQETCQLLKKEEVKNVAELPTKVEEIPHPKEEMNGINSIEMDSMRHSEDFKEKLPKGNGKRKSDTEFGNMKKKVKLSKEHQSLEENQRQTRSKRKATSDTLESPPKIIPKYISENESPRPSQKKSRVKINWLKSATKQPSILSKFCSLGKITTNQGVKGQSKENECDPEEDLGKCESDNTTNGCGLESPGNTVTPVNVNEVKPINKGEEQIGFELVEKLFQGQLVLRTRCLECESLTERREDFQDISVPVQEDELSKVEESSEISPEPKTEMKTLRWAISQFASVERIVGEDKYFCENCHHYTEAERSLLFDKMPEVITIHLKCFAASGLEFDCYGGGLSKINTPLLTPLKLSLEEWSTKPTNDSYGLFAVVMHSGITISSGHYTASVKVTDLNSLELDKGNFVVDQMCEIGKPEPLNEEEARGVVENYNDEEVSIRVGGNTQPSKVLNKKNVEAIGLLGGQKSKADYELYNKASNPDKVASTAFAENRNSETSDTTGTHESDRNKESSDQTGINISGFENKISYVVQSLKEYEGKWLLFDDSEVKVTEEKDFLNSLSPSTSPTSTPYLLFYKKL
USP1/UAF1 complex, sequence (Q8TAF3 whole entry): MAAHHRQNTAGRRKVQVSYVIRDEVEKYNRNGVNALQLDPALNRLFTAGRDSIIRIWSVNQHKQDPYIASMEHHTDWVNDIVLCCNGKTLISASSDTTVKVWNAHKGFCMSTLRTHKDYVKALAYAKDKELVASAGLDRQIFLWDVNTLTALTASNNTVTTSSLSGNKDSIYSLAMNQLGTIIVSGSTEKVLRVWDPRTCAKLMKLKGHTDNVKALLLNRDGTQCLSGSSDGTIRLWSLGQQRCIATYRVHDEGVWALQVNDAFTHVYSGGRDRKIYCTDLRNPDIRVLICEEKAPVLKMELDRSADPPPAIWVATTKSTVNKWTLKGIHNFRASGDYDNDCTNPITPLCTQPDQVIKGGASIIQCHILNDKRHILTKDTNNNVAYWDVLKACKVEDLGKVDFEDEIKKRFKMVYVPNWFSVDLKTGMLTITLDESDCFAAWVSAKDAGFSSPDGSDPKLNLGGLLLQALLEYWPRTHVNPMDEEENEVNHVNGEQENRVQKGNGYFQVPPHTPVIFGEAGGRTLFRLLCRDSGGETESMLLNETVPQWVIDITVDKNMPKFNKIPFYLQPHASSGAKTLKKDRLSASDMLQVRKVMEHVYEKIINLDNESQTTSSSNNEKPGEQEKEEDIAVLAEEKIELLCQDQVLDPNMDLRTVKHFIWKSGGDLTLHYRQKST

USP7, sequence (Q93009 whole entry): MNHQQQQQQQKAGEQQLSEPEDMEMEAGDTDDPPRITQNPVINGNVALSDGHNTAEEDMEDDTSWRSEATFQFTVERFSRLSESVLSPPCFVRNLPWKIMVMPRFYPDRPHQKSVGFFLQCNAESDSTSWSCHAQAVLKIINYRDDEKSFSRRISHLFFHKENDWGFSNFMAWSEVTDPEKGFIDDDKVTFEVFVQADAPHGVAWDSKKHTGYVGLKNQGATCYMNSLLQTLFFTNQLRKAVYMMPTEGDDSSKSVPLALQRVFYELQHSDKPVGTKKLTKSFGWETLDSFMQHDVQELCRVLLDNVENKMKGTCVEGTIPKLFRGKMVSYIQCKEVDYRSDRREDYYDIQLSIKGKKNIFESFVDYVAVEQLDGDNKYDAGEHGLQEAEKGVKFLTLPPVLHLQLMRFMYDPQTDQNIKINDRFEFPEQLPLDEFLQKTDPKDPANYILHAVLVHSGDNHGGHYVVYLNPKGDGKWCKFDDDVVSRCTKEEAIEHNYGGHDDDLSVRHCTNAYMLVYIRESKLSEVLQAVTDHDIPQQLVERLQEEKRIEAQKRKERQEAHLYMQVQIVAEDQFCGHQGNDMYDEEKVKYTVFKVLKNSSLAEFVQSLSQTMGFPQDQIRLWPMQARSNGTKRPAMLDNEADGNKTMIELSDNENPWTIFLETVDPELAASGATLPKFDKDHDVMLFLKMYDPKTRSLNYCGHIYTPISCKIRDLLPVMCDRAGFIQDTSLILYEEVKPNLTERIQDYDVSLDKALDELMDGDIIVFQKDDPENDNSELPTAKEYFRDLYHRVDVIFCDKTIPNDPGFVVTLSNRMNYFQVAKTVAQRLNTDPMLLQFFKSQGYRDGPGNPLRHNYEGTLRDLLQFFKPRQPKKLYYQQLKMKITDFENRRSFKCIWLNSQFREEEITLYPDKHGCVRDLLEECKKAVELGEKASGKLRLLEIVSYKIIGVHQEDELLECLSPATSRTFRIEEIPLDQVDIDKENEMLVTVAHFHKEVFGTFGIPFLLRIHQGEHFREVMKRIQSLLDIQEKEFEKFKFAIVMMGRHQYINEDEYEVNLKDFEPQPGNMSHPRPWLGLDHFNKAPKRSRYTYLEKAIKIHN
T1 sequence (O94782 whole entry): as the sequence (O94782 whole entry) above
T1 sequence (Q8TAF3 whole entry, further chain): as the sequence (Q8TAF3 whole entry) above
USP1/UAF1 (Homo sapiens, UniProt O94782+Q8TAF3), sequence (O94782 whole entry): as the sequence (O94782 whole entry) above
USP1/UAF1 (Homo sapiens, UniProt O94782+Q8TAF3), sequence (Q8TAF3 whole entry): as the sequence (Q8TAF3 whole entry) above

Row | Compound | IC50 [1] [µM] | IC50 [2] [µM] | IC50 [3] [µM] | IC50 for USP7, fold higher than that for USP1/UAF1 [1] [fold] | Ki [4] [µM] | inhibition mechanism [5] | EC50 at 48 h [6] [µM] | Ub-FANCD2 level, single agent [7] | effect on level of Ub-H2A [8] | monoubiquitination of PCNA, single agent [9] | dissociation of the USP1/UAF1 complex [10]
1 | CN1CCN(CCCN2c3ccccc3Sc3ccc(C(F)(F)F)cc32)CC1 [Trifluoperazine, trifluoperazine] | 9 ± 1 | ≤ 8 | > 500 |  |  |  |  |  |  |  | 
2 | CC(C)(Sc1ccc(CCN(CCCCC2CCCCC2)C(=O)NC2CCCCC2)cc1)C(=O)O [GW7647] | 44 ± 2 |  | > 200 | 9 | 0.7 | noncompetitively; also recorded: noncompetitive inhibition mechanism | 26 | increase in Ub-FANCD2 level | no effect | significant increase | no dissociation
3 | O=c1[nH]c2ccccc2n1C1CCN(CCCC(c2ccc(F)cc2)c2ccc(F)cc2)CC1 [Pimozide, pimozide] | 47 ± 1 |  | > 500 | 24 | 0.5 | noncompetitively; also recorded: noncompetitive inhibition mechanism | 21 | increase in Ub-FANCD2 level | no effect | significant increase | no dissociation
4 | OCCN1CCN(CCC=C2c3ccccc3Sc3ccc(C(F)(F)F)cc32)CC1 [Flupenthixol, flupenthixol] | 13 ± 1 | 7 ± 1 | > 500 |  |  |  |  |  |  |  | 
